Laboratory results reported in patent US20250282768A1 (Janssen Pharmaceutica NV, priority 2022, published 2025).

System: p-IKKa levels in L363 (NIK translocated multiple myeloma) cells
Assay: Assay 2: Effect of compounds on p-IKKa levels in L363 (NIK translocated multiple myeloma) cells
Type: cell-based
Details: Homo sapiens, L-363, 6 h, read-out: Assay 2 IC50 (nM), p-IKKa (Ser 176/180) in BAFF stimulated L363 cells with MG132, 6 h; average if tested more than once
Outline: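 L363 cells incubated overnight ± 250 ng/ml BAFF, then 6 h at 37 °C with compound (0.3% DMSO) ± 10 μM MG132. Lysates assayed for p-IKKa (Ser176/180) by AlphaLISA SureFire. IC50 from sigmoidal fit of % inhibition normalized to BAFF/MG132-stimulated and unstimulated controls.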

| SMILES | IC50 [nM] |
| --- | --- |
| CN1CC[C@@](O)(c2cc(-c3cccc(-c4ccnc(N[C@H](CO)c5ccccn5)n4)n3)no2)C1=O [Example 388, (R)-3-Hydroxy-3-(3-(6-(2-(((S)-2-hydroxy-1-(pyridin-2-yl)ethyl)amino)pyrimidin-4-yl)pyridin-2-yl)isoxazol-5-yl)-1-methylpyrrolidin-2-one] | 50 to 500 |
| Cc1cc(C(C)Nc2nccc(-c3cccc(-c4cc([C@]5(O)CCN(C)C5=O)on4)n3)n2)n[nH]1 (stereo partly drawn) [Example 379, (3R)-3-Hydroxy-1-methyl-3-(3-(6-(2-((1-(5-methyl-1H-pyrazol-3-yl)ethyl)amino)pyrimidin-4-yl)pyridin-2-yl)isoxazol-5-yl)pyrrolidin-2-one] | 50 to 500 |
| CN1CC[C@@](O)(c2cc(-c3cccc(-c4ccnc(NC5CCN(S(=O)(=O)C6CC6)CC5)n4)n3)no2)C1=O [Example 447, (R)-3-(3-(6-(2-((1-(Cyclopropylsulfonyl)piperidin-4-yl)amino)pyrimidin-4-yl)pyridin-2-yl)isoxazol-5-yl)-3-hydroxy-1-methylpyrrolidin-2-one] | 50 to 500 |
| CN1CC[C@@](O)(c2cc(-c3cccc(-c4ccnc(Nc5cnn(C)c5Cl)n4)n3)n[nH]2)C1=O (single isomer, unassigned) [Example 104] | > 500 |
| C[C@H](Nc1nccc(-c2cccc(-c3cc([C@]4(O)CCN(C)C4=O)on3)n2)n1)C1CC1 [Example 441, (R)-3-(3-(6-(2-(((S)-1-Cyclopropylethyl)amino)pyrimidin-4-yl)pyridin-2-yl)isoxazol-5-yl)-3-hydroxy-1-methylpyrrolidin-2-one] | > 500 |
| Cc1n[nH]cc1Nc1nccc(-c2cccc(-c3cc([C@]4(O)CCN(C)C4=O)on3)n2)n1 [Example 36, (R)-3-Hydroxy-1-methyl-3-(3-(6-(2-((3-methyl-1H-pyrazol-4-yl)amino)pyrimidin-4-yl)pyridin-2-yl)isoxazol-5-yl)pyrrolidin-2-one] | < 50 |
| COc1nccc(Nc2nccc(-c3cccc(-c4cc([C@]5(O)CCN(C)C5=O)on4)n3)n2)n1 [Example 113, (R)-3-Hydroxy-3-(3-(6-(2-((2-methoxypyrimidin-4-yl)amino)pyrimidin-4-yl)pyridin-2-yl)isoxazol-5-yl)-1-methylpyrrolidin-2-one] | < 50 |
| C[C@@H](Nc1nccc(-c2cccc(-c3cc([C@]4(O)CCN(C)C4=O)on3)n2)n1)c1ccncc1 (single isomer, unassigned) [Example 154] | 50 to 500 |
| CCn1ncnc1Nc1nccc(-c2cccc(-c3cc([C@]4(O)CCN(C)C4=O)on3)n2)n1 [Example 276, (R)-3-(3-(6-(2-((1-Ethyl-1H-1,2,4-triazol-5-yl)amino)pyrimidin-4-yl)pyridin-2-yl)isoxazol-5-yl)-3-hydroxy-1-methylpyrrolidin-2-one] | > 500 |
| C[C@H](Nc1nccc(-c2cccc(-c3cc([C@]4(O)CCN(C)C4=O)on3)n2)n1)C(=O)N1CCCCC1 [Example 180, (R)-3-Hydroxy-1-methyl-3-(3-(6-(2-(((S)-1-oxo-1-(piperidin-1-yl)propan-2-yl)amino)pyrimidin-4-yl)pyridin-2-yl)isoxazol-5-yl)pyrrolidin-2-one] | 50 to 500 |
| CN1CC[C@@](O)(c2cc(-c3cccc(-c4ccnc(Nc5ccncc5)n4)n3)no2)C1=O [Example 249, (R)-3-Hydroxy-1-methyl-3-(3-(6-(2-(pyridin-4-ylamino)pyrimidin-4-yl)pyridin-2-yl)isoxazol-5-yl)pyrrolidin-2-one] | < 50 |
| Cc1cncc(Nc2nccc(-c3cccc(-c4cc([C@]5(O)CCN(C)C5=O)on4)n3)n2)c1 [Example 245, (R)-3-Hydroxy-1-methyl-3-(3-(6-(2-((5-methylpyridin-3-yl)amino)pyrimidin-4-yl)pyridin-2-yl)isoxazol-5-yl)pyrrolidin-2-one] | > 500 |
| CN1CC[C@@](O)(c2cc(-c3cccc(-c4ccnc(Nc5cnn6c5CNCC6)n4)c3)no2)C1=O [Example 419, (R)-3-Hydroxy-1-methyl-3-(3-(3-(2-((4,5,6,7-tetrahydropyrazolo[1,5-a]pyrazin-3-yl)amino)pyrimidin-4-yl)phenyl)isoxazol-5-yl)pyrrolidin-2-one] | > 500 |
| CN1CC[C@@](O)(c2cc(-c3cccc(-c4ccnc(Nc5cnn(C)c5C(F)F)n4)n3)no2)C1=O (single isomer, unassigned) [Example 198, (*R)-3-(3-(6-(2-((5-(Difluoromethyl)-1-methyl-1H-pyrazol-4-yl)amino)pyrimidin-4-yl)pyridin-2-yl)isoxazol-5-yl)-3-hydroxy-1-methylpyrrolidin-2-one] | < 50 |
| CN1CC[C@@](O)(c2cc(-c3cccc(-c4ccnc(Nc5ncn6ccnc6n5)n4)n3)no2)C1=O [Example 315, (R)-3-Hydroxy-3-(3-(6-(2-(imidazo[1,2-a][1,3,5]triazin-2-ylamino)pyrimidin-4-yl)pyridin-2-yl)isoxazol-5-yl)-1-methylpyrrolidin-2-one] | > 500 |
| COCc1ccnc(Nc2nccc(-c3cccc(-c4cc([C@]5(O)CCN(C)C5=O)on4)n3)n2)c1 [Example 260, (R)-3-Hydroxy-3-(3-(6-(2-((4-(methoxymethyl)pyridin-2-yl)amino)pyrimidin-4-yl)pyridin-2-yl)isoxazol-5-yl)-1-methylpyrrolidin-2-one] | < 50 |
| C[C@@H](Nc1nccc(-c2cccc(-c3cc([C@]4(O)CCN(C)C4=O)on3)n2)n1)C(=O)N1CCC1 [Example 167, (R)-3-(3-(6-(2-(((R)-1-(Azetidin-1-yl)-1-oxopropan-2-yl)amino)pyrimidin-4-yl)pyridin-2-yl)isoxazol-5-yl)-3-hydroxy-1-methylpyrrolidin-2-one] | > 500 |
| CN1CC[C@@](O)(c2cn(-c3cccc(-c4ccnc(Nc5cnn(C)c5)n4)n3)nn2)C1=O [Example 206, (R)-3-Hydroxy-1-methyl-3-(1-(6-(2-((1-methyl-1H-pyrazol-4-yl)amino)pyrimidin-4-yl)pyridin-2-yl)-1H-1,2,3-triazol-4-yl)pyrrolidin-2-one] | < 50 |
| CN1CC[C@@](O)(c2cc(-c3cccc(-c4ccnc(Nc5cnn(C)c5C5CC5)n4)n3)no2)C1=O [Example 228, (R)-3-(3-(6-(2-((5-Cyclopropyl-1-methyl-1H-pyrazol-4-yl)amino)pyrimidin-4-yl)pyridin-2-yl)isoxazol-5-yl)-3-hydroxy-1-methylpyrrolidin-2-one] | < 50 |
| CN1CC[C@@](O)(c2cc(-c3cccc(-c4ccnc(Nc5cnn6cccnc56)n4)n3)no2)C1=O [Example 38, (R)-3-Hydroxy-1-methyl-3-(3-(6-(2-(pyrazolo[1,5-a]pyrimidin-3-ylamino)pyrimidin-4-yl)pyridin-2-yl)isoxazol-5-yl)pyrrolidin-2-one] | < 50 |
| CN1CC[C@@](O)(c2cc(-c3cccc(-c4ccnc(Nc5cnn([C@H]6CCN(C7COC7)C6)c5)n4)n3)no2)C1=O (single isomer, unassigned) [Example 140] | < 50 |
| C[C@H](CC(F)(F)F)Nc1nccc(-c2cccc(-c3cc([C@]4(O)CCN(C)C4=O)on3)n2)n1 (single isomer, unassigned) [Example 438, (R)-3-Hydroxy-1-methyl-3-(3-(6-(2-(((*R)-4,4,4-trifluorobutan-2-yl)amino)pyrimidin-4-yl)pyridin-2-yl)isoxazol-5-yl)pyrrolidin-2-one] | 50 to 500 |
